These results are taken from US20200405696A1, “INHIBITORS OF INDOLEAMINE 2,3-DIOXYGENASE AND/OR TRYPTOPHAN 2,3-DIOXYGENASE” (IDORSIA PHARMACEUTICALS LTD, priority 2018, published 2020).

Assay [1] deals with T1, Recombinant full-length human IDO1 (Homo sapiens, UniProt P14902).
T1 construct: Recombinant full-length human IDO1 with a N-terminal hexahistidine tag; hexahistidine (His6) (N); made in house; host or cells: E. coli
Description: IDO1 enzymatic assay (NFK quantified by LCMS). Particulars: 2 nM enzyme, 5 μM L-tryptophan, pH6.5, 30 minutes pre-incubation at RT; mean values when measured multiple times; read-out: hIDO activity (IC50 in nM). It is filed as biochemical. An outline of the steps: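 IC50 comes from four-parameter logistic fits of duplicate data, with NFK quantified by LCMS and normalized to L-Trp-(indole-d5). Compound (0.5 nM–10 μM) was preincubated 30 min at RT with 2 nM E. coli-expressed IDO1 before a 30 min reaction with 5 μM tryptophan in pH 6.5 buffer containing ascorbate and methylene blue.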

Assay [2] deals with T2, Recombinant human TDO comprising amino acids 19-407 (Homo sapiens, UniProt P48775).
T2 construct: Recombinant human TDO comprising amino acids 19-407 with a N-terminal hexahistidine tag; hexahistidine (His6) (N); made in house; host or cells: E. coli
T2 sequence (P48775 19-406 limits assumed): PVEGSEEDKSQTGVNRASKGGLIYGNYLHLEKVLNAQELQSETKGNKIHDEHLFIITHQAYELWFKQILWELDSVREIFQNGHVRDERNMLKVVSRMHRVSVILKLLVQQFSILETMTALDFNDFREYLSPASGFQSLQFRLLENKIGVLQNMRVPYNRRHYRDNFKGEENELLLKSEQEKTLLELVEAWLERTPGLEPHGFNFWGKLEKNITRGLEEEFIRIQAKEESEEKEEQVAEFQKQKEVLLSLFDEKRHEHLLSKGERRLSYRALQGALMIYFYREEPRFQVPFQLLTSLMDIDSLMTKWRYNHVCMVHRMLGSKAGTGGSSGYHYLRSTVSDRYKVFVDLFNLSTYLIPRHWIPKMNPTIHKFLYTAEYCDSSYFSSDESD
Description: TDO2 enzymatic assay (NFK quantified by LCMS). It is filed as biochemical. Particulars: 15 nM enzyme, 200 μM L-tryptophan, pH7, 30 minutes pre-incubation at RT; mean values when measured multiple times; read-out: hTDO activity (IC50 in nM). The method in brief:
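NFK formed over 30 min at RT from 200 μM L-tryptophan was measured by LCMS, normalized to d5-tryptophan, after compound (0.5 nM–10 μM, duplicates, 0.6% DMSO) was preincubated 30 min with 15 nM recombinant His-tagged TDO 19-407 in phosphate buffer pH 7. IC50 from four-parameter logistic fit; repeats averaged.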

SMILES strings stand for the structures.

T1 sequence (P14902 whole entry): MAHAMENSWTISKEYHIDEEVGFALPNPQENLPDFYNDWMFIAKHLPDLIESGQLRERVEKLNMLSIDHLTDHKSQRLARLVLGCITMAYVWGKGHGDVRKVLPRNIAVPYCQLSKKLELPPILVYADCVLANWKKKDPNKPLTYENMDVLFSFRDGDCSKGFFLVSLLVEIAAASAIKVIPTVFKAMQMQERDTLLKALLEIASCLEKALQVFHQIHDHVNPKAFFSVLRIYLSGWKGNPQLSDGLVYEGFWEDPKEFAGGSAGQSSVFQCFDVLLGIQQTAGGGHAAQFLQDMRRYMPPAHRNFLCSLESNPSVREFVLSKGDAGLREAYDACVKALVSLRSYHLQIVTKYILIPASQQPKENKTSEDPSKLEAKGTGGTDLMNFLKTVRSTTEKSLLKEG

As to `COc1ccc(-n2nnc(C(O)c3c(C4CC4)sc4cncn34)c2C)c(C)c1` (racemic) [Example 326, rac-(2-Cyclopropyl-imidazo[5,1-b]thiazol-3-yl)-[1-(4-methoxy-2-methyl-phenyl)-5-methyl-1H-[1,2,3]triazol-4-yl]-methanol], the IC50 in assay [1] was found to be 16.9 nM; in assay [2] it was 9520 nM.
Consider `Cn1nccc1-c1ccc(C(O)c2c(C3CC3)sc3cncn23)s1` (racemic) [Example 169, rac-(2-Cyclopropyl-imidazo[5,1-b]thiazol-3-yl)-[5-(2-methyl-2H-pyrazol-3-yl)-thiophen-2-yl]-methanol], for which the values for the IC50 in assay [1] and in assay [2] were 60 nM and 2940 nM, respectively.
For the compound `OC(c1cnn(-c2ccccc2)n1)c1c(C2CC2)sc2cncn12` (racemic) [Example 158, rac-(2-Cyclopropyl-imidazo[5,1-b]thiazol-3-yl)-(2-phenyl-2H-[1,2,3]triazol-4-yl)-methanol], the values for the IC50 in assay [1] and in assay [2] were 466 nM and 5440 nM, respectively.
On to `CCNC(=O)Nc1ccc(-n2cc(C(O)c3c(C4CC4)sc4cncn34)nn2)cc1OC` (racemic) [Example 183, rac-1-(4-{4-[(2-Cyclopropyl-imidazo[5,1-b]thiazol-3-yl)-hydroxy-methyl]-[1,2,3]triazol-1-yl}-2-methoxy-phenyl)-3-ethyl-urea], for which the IC50 in assay [1] was 15.5 nM; in assay [2] it was over 10200 nM.
With `Cc1cc(-n2cc(C(O)c3c(C4CC4)sc4cncn34)nn2)ccc1O` (racemic) [Example 211, rac-4-{4-[(2-Cyclopropyl-imidazo[5,1-b]thiazol-3-yl)-hydroxy-methyl]-[1,2,3]triazol-1-yl}-2-methyl-phenol], the half-maximal inhibitory concentration (IC50) in assay [1] was 15.8 nM; in assay [2] it was over 10200 nM.
With `COc1ccc(-n2nnc(C(O)c3c([C@@H]4C[C@H]4F)sc4cncn34)c2F)cc1` (relative stereo) [Example 335, [2-(trans-2-Fluoro-cyclopropyl)-imidazo[5,1-b]thiazol-3-yl]-[5-fluoro-1-(4-methoxy-phenyl)-1H-[1,2,3]triazol-4-yl]-methanol], the results for the IC50 in assay [1] and in assay [2] were 23 nM and over 10200 nM, respectively.
Take `C=C(C)c1sc2cncn2c1C(O)c1cn(-c2ccc(OC)cc2)nn1` (racemic) [Example 269, rac-(2-Isopropenyl-imidazo[5,1-b]thiazol-3-yl)-[1-(4-methoxy-phenyl)-1H-[1,2,3]triazol-4-yl]-methanol]: the concentration for half-maximal inhibition (IC50) in assay [1] is 7.26 nM; in assay [2] it was over 10200 nM.
Consider `OC(c1cn(-c2ccc(Cl)cc2)nn1)c1c(C2CC2)sc2cncn12` (racemic) [Example 34, rac-[1-(4-Chloro-phenyl)-1H-[1,2,3]triazol-4-yl]-(2-cyclopropyl-imidazo[5,1-b]thiazol-3-yl)-methanol], for which the concentration for half-maximal inhibition (IC50) in assay [1] is 21.9 nM; in assay [2], over 10200 nM.
For the compound `OCCOc1ccc(-n2cc(C(O)c3c(C4CC4)sc4cncn34)nn2)cc1` (racemic) [Example 136, rac-2-(4-{4-[(2-Cyclopropyl-imidazo[5,1-b]thiazol-3-yl)-hydroxy-methyl]-[1,2,3]triazol-1-yl}-phenoxy)-ethanol], the IC50 was 10.8 nM in assay [1] and over 10200 nM in assay [2].
Consider `COc1cc(C)c(-n2cc(C(O)c3c(C4CC4)sc4cncn34)nn2)c(C)c1` (racemic) [Example 311, rac-(2-Cyclopropyl-imidazo[5,1-b]thiazol-3-yl)-[1-(4-methoxy-2,6-dimethyl-phenyl)-1H-[1,2,3]triazol-4-yl]-methanol], for which the IC50 in assay [1] is 137 nM; in assay [2], over 10200 nM.
For the compound `OC(c1cn(-c2ccc(OCC(F)(F)F)nc2)nn1)c1c(C2CC2)sc2cncn12` (racemic) [Example 78, rac-(2-Cyclopropyl-imidazo[5,1-b]thiazol-3-yl)-{1-[6-(2,2,2-trifluoro-ethoxy)-pyridin-3-yl]-1H-[1,2,3]triazol-4-yl}-methanol], the IC50 is 17.4 nM in assay [1] and over 10200 nM in assay [2].
Take `OC(c1cn(-c2cccc3ncccc23)nn1)c1c(C2CC2)sc2cncn12` (racemic) [Example 24, rac-(2-Cyclopropyl-imidazo[5,1-b]thiazol-3-yl)-(1-quinolin-5-yl-1H-[1,2,3]triazol-4-yl)-methanol]: the half-inhibitory concentration (IC50) is 22.8 nM in assay [1] and over 10200 nM in assay [2].
Take `COc1ccc(-n2cc(C(O)c3c(C4(C)CC4)sc4cncn34)nn2)cc1` (racemic) [Example 44, rac-[1-(4-Methoxy-phenyl)-1H-[1,2,3]triazol-4-yl]-[2-(1-methyl-cyclopropyl)-imidazo[5,1-b]thiazol-3-yl]-methanol]: the figures for the IC50 in assay [1] and in assay [2] were 38.8 nM and over 10200 nM, respectively.
Regarding `CCNC(=O)c1ccc(-n2cc(C(O)c3c(C4CC4)sc4cncn34)nn2)cc1` (racemic) [Example 107, rac-4-{4-[(2-Cyclopropyl-imidazo[5,1-b]thiazol-3-yl)-hydroxy-methyl]-[1,2,3]triazol-1-yl}-N-ethyl-benzamide], the concentration for half-maximal inhibition (IC50) was 16.6 nM in assay [1] and over 10200 nM in assay [2].
As to `CN(C)S(=O)(=O)c1ccc(-n2cc(C(O)c3c(C4CC4)sc4cncn34)nn2)cc1` (racemic) [Example 236, rac-4-{4-[(2-Cyclopropyl-imidazo[5,1-b]thiazol-3-yl)-hydroxy-methyl]-[1,2,3]triazol-1-yl}-N,N-dimethyl-benzenesulfonamide], the IC50 in assay [1] is 105 nM; in assay [2], over 10200 nM.
For the compound `Cc1sc2cncn2c1C(O)c1ccc(-c2ccccc2)s1` (racemic) [Example 154, rac-(2-Methyl-imidazo[5,1-b]thiazol-3-yl)-(5-phenyl-thiophen-2-yl)-methanol], the IC50 worked out at 366 nM in assay [1] and 7270 nM in assay [2].
For `CCc1sc2cncn2c1C(O)c1cn(-c2ccc(OC)cc2)nn1` (racemic) [Example 285, rac-(2-Ethyl-imidazo[5,1-b]thiazol-3-yl)-[1-(4-methoxy-phenyl)-1H-[1,2,3]triazol-4-yl]-methanol], in that order: 7.91 nM and 6470 nM.
In the case of `Oc1c(F)cc(-n2cc(C(O)c3c(C4CC4)sc4cncn34)nn2)cc1F` (racemic) [Example 149, rac-4-{4-[(2-Cyclopropyl-imidazo[5,1-b]thiazol-3-yl)-hydroxy-methyl]-[1,2,3]triazol-1-yl}-2,6-difluoro-phenol], the values for the 50% inhibitory concentration (IC50) in assay [1] and in assay [2] were 3.8 nM and over 10200 nM, respectively.
As to `O=C(Nc1ccc(-n2cc(C(O)c3c(C4CC4)sc4cncn34)nn2)cc1)c1ccccc1` (racemic) [Example 189, rac-N-(4-{4-[(2-Cyclopropyl-imidazo[5,1-b]thiazol-3-yl)-hydroxy-methyl]-[1,2,3]triazol-1-yl}-phenyl)-benzamide], the concentration for half-maximal inhibition (IC50) in assay [1] is 30.6 nM; in assay [2], over 10200 nM.
Taken in the same sequence, the figures for `OC(c1cn(-c2cncc3ccccc23)nn1)c1c(C2CC2)sc2cncn12` (racemic) [Example 26, rac-(2-Cyclopropyl-imidazo[5,1-b]thiazol-3-yl)-(1-isoquinolin-4-yl-1H-[1,2,3]triazol-4-yl)-methanol] were 5.68 nM and 4190 nM.
For `Cc1cc(O)ccc1-n1cc(C(O)c2c(C3CC3)sc3cncn23)nn1` (racemic) [Example 207, rac-4-{4-[(2-Cyclopropyl-imidazo[5,1-b]thiazol-3-yl)-hydroxy-methyl]-[1,2,3]triazol-1-yl}-3-methyl-phenol], in that order: 26.9 nM and over 10200 nM.

For orientation: IC50 means the concentration needed to halve the response being measured.
